The compounds below were run against T1, calcium channel (Oryctolagus cuniculus, UniProt P15381) (assay: Assay for Inhibition of Nitrendipine Binding (3H-nitrendipine, heart membranes)). Conditions: Table 1, compounds of Formula I; 3H-nitrendipine displacement, rabbit heart membranes; read-out: Nitrendipine Binding Assay IC50.
T1 construct: from tissue; host or cells: rabbit heart membrane preparation
T1 sequence (P15381 whole entry, other chains not shown): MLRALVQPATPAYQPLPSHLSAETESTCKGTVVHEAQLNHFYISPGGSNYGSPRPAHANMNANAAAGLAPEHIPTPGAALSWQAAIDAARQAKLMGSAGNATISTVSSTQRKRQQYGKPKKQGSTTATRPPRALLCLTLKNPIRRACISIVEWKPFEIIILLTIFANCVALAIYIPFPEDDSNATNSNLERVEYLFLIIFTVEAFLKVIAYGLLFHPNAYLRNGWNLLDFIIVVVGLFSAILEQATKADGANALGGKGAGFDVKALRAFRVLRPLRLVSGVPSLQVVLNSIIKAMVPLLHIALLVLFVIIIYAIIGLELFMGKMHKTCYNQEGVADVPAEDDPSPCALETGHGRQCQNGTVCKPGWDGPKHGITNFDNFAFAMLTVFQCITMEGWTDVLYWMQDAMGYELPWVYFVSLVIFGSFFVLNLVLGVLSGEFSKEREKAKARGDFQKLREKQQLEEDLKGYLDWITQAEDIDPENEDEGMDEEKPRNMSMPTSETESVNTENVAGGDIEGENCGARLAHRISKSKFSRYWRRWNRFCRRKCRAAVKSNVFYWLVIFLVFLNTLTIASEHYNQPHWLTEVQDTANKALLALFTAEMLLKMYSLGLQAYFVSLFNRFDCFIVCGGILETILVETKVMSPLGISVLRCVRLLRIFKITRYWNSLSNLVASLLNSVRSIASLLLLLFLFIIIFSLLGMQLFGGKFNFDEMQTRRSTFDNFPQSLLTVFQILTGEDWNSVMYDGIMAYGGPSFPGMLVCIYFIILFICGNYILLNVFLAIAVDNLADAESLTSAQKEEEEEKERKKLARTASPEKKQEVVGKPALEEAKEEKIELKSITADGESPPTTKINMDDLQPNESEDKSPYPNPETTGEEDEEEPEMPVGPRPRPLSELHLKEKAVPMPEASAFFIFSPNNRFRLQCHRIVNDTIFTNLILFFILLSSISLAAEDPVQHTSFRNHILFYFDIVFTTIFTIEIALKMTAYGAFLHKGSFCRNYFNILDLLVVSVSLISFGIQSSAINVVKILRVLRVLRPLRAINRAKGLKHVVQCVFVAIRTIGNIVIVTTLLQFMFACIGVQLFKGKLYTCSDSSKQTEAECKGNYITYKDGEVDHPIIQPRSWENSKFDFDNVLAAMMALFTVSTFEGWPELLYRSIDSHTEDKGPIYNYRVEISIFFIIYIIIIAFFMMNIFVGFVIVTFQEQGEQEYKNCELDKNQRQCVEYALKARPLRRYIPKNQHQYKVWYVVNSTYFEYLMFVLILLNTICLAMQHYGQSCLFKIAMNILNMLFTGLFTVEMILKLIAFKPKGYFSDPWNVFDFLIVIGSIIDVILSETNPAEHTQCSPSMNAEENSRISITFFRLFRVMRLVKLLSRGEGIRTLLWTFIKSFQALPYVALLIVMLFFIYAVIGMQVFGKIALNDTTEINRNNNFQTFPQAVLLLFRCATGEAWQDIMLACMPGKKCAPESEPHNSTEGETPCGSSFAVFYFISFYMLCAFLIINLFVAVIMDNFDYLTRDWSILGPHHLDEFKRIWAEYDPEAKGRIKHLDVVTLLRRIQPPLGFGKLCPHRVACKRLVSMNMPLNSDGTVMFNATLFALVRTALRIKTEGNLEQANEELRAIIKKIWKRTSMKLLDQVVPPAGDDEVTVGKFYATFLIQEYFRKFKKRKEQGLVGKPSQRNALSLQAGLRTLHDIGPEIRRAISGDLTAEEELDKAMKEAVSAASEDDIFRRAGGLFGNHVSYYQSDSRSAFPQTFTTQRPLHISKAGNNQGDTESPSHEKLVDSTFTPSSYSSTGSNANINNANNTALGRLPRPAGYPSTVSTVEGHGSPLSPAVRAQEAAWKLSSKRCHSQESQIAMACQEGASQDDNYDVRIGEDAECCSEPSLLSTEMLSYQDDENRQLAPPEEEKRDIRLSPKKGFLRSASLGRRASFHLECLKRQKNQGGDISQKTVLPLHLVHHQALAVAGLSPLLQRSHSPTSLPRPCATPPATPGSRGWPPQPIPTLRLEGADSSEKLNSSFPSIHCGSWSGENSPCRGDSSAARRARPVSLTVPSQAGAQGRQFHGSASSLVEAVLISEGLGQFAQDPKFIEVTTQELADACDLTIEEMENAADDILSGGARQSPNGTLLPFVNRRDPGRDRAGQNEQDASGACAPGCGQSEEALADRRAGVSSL
T1 sequence (P13806 27-960 partner limits assumed, other chains not shown): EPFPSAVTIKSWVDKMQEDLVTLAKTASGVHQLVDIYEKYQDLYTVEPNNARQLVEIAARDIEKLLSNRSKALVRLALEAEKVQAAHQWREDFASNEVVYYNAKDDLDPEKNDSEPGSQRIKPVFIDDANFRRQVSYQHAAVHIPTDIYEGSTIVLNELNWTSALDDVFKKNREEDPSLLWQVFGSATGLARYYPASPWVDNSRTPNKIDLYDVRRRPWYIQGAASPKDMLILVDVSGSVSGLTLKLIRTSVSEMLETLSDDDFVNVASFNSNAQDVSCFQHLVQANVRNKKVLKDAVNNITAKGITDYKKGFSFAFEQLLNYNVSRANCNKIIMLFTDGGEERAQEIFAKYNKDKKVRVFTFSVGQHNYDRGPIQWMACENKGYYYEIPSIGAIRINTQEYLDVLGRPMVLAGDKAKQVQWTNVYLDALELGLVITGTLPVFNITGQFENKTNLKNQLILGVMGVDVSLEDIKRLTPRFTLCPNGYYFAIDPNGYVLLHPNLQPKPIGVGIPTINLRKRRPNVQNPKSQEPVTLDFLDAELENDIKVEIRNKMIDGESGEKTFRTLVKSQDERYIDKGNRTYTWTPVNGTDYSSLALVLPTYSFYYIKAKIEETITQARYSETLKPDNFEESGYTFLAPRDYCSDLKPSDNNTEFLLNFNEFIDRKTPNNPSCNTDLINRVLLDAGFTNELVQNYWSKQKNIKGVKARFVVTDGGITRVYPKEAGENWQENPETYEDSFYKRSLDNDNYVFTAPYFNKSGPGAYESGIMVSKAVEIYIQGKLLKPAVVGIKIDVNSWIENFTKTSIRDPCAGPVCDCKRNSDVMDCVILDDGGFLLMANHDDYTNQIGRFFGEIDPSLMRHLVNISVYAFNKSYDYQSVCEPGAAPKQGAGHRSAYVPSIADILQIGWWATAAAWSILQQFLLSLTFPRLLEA
T1 sequence (P13806 961-1106 partner limits assumed, other chains not shown): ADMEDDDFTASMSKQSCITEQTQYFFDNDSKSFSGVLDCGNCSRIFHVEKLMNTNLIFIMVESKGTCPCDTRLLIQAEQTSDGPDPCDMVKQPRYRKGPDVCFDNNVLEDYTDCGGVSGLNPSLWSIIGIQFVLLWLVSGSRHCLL
Parameters: species or system rabbit
Experimental: Assay for Inhibition of Nitrendipine Binding
Female, New Zealand white rabbits (1-2 kg) are sacrificed by cervical dislocation, and the heart is immediately removed, cleaned and chopped into small pieces. The tissue is homogenized in 5×times volume of 0.05M Hepes buffer, pH 7.4. The homogenate is centrifuged at 4000 g for 10 minutes, and the supernatant is re-centrifuged at 42,000×g for 90 minutes. The resulting membrane pellet is resuspended (0.7 ml/g weight) in 0.05M Hepes, pH 7.4 and stored at […] until used. Each tube of the binding assay contains ^3H-nitrendipine (0.05-0.50 nM), buffer, membranes (0.10 ml), and test compound in a total volume of 1.0 ml. After 90 minutes at 4° C., the bound nitrendipine is separated from the unbound by filtration on Whatman GF/C filters. After rinsing, the filters are dried and counted in a liquid scintillation counter.
Non-specific binding of ^3H-nitrendipine (that amount bound in the presence of excess unlabelled nitrendipine) is subtracted from the total bound to obtain specifically bound radiolabeled nitrendipine. The amount of specifically bound nitrendipine in the presence of a test compound is compared to that amount bound in the absence of a compound. A percent displacement (or inhibition) can then be calculated.
Compound `COC(=O)C1=C(C)NC2=C(C1c1cccc(Cl)c1Cl)S(=O)(=O)c1ccccc1[S+]([O-])C2` (stereo not drawn) [Compound 7, 1H-[1,5]Benzodithiepino[3,2-b]pyridine-3-carboxylic acid, 4-(2,3-dichlorophenyl)-4,11-dihydro-2-methyl, methyl ester, 5,5,10-trioxide] has an IC50 of 8 nM. For `COC(=O)C1=C(C)NC2=C(C1c1cccc(C(F)(F)F)c1F)S(=O)(=O)c1ccccc1S(=O)(=O)C2` (stereo not drawn) [Compound 13, 1H-[1,5]Benzodithiepino[3,2-b]pyridine-3-carboxylic acid, 4-[2-fluoro-3-(trifluoromethyl)phenyl]-4,11-dihydro-2-methyl, methyl ester, 5,5,10,10-tetraoxide], the IC50 was 14 nM. Compound `COC(=O)C1=C(C)NC2=C(C1c1cccc(Cl)c1Cl)S(=O)(=O)c1ccccc1S(=O)(=O)C2` (stereo not drawn) [Compound 8, 1H-[1,5]Benzodithiepino[3,2-b]pyridine-3-carboxylic acid, 4-(2,3-dichlorophenyl)-4,11-dihydro-2-methyl, methyl ester, 5,5,10,10-tetraoxide] has an IC50 of 22 nM. For `COC(=O)C1=C(C)NC2=C(C1c1cccc(Cl)c1)S(=O)(=O)c1ccccc1S(=O)(=O)C2` (stereo not drawn) [Compound 9, 1H-[1,5]Benzodithiepino[3,2-b]pyridine-3-carboxylic acid, 4-(3-chlorophenyl)-4,11-dihydro-2-methyl, methyl ester, 5,5,10,10-tetraoxide], the IC50 was 10 nM. `CC1=C(C(=O)OCCN(C)Cc2ccccc2)C(c2c(F)c(F)c(F)c(F)c2F)C2=C(CS(=O)(=O)c3ccccc3S2(=O)=O)N1` (stereo not drawn) [Compound 12, 1H-[1,5]Benzodithiepino[3,2-b]pyridine-3-carboxylic acid, 4,11-dihydro-2-methyl-4-(pentafluorophenyl), 2-[methyl(phenylmethyl)amino]ethyl ester, 5,5,10,10-tetraoxide] was tested, and the IC50 was 21 nM. With `CC1=C(C(=O)OCCN(C)Cc2ccccc2)C(c2ccccc2[N+](=O)[O-])C2=C(CS(=O)(=O)c3ccccc3S2(=O)=O)N1` (stereo not drawn) [Compound 3, 1H-[1,5]Benzodithiepino[3,2-b]pyridine-3-carboxylic acid, 4,11-dihydro-2-methyl-4-(2-nitrophenyl), 2-[methyl(phenylmethyl)amino]ethyl ester, 5,5,10,10-tetraoxide] the IC50 was 34 nM.

Same assay, conditions: Table 2, compounds of Formula II; 3H-nitrendipine displacement, rabbit heart membranes; read-out: Nitrendipine Binding IC50
`CC(=O)OCCOC(=O)C1=C(C)NC2=C(C1c1c(F)cccc1Cl)S(=O)(=O)c1ccccc1S(=O)(=O)C2` (stereo not drawn) [Compound 22, 1H-[1,5]benzodithiepino[3,2-b]pyridine-3-carboxylic acid, 4-(2-chloro-6-fluorophenyl)-4,11-dihydro-2-methyl-, 2-(acetyloxy)ethyl ester, 5,5,10,10-tetraoxide] was tested, and the IC50 was 180 nM. In the case of `CC1=C(C(=O)OCCOC(=O)C(C)(C)C)C(c2c(F)cccc2Cl)C2=C(CS(=O)(=O)c3ccccc3S2(=O)=O)N1` (stereo not drawn) [Compound 28, 1H-[1,5]benzodithiepino[3,2-b]pyridine-3-carboxylic acid, 4-(2-chloro-6-fluorophenyl)-4,11-dihydro-2-methyl-, 2-(2,2-dimethyl-1-oxopropoxy)ethyl ester, 5,5,10,10-tetraoxide], the IC50 is reported as 370 nM. Compound `CC1=C(C(=O)OCCCOC(=O)c2ccccc2)C(c2c(F)cccc2Cl)C2=C(CS(=O)(=O)c3ccccc3S2(=O)=O)N1` (stereo not drawn) [Compound 34] has an IC50 of 188 nM.

From patent US6472530B1, “Benzo-fused dithiepino[6,5-b]pyridines, and related compositions and methods” (Ortho-McNeil Pharmaceutical, Inc., priority 1999, dated 2002)
